Reference: ChEMBL document CHEMBL1909046, “DrugMatrix in vitro pharmacology data”
pIC50: −log10 of the molar value.

Key:
[1] = DRUGMATRIX: ATPase, Na+/K+ enzyme inhibition (substrate: ATP); type: tissue-based, Sus scrofa, Heart; conditions: Not Active = under 50% inhibition at 10 µM
[2] = DRUGMATRIX: Calcium Channel Type L, Dihydropyridine radioligand binding (ligand: [3H] Nitrendipine); type: cell membranes, Rattus norvegicus, Wistar, Cerebral cortex, Membrane; conditions: Not Active = under 50% inhibition at 10 µM
Substance-K receptor = molecular target: T1, Substance-K receptor (Homo sapiens, UniProt P21452); type: cell membranes, CHO, Membrane; conditions: cho; note: in other assays of this panel Not Active means under 50% inhibition at 10 µM
T1 sequence (P21452 whole entry): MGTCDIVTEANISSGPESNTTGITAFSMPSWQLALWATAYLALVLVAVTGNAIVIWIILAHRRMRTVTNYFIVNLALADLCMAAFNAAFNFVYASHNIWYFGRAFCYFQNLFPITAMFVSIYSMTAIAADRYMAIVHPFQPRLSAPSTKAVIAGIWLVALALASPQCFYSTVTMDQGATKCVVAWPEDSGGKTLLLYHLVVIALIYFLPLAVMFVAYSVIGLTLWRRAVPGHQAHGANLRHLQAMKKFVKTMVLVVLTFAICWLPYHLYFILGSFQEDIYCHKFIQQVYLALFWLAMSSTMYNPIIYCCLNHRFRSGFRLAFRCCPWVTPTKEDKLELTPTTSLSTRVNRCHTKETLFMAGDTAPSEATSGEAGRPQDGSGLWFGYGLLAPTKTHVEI

[3] = molecular target: T2, Muscarinic acetylcholine receptor M2 (Homo sapiens, UniProt P08172); type: cell membranes, CHO-K1, Membrane; conditions: cho-k1; note: in other assays of this panel Not Active means under 50% inhibition at 10 µM
T2 sequence (P08172 whole entry): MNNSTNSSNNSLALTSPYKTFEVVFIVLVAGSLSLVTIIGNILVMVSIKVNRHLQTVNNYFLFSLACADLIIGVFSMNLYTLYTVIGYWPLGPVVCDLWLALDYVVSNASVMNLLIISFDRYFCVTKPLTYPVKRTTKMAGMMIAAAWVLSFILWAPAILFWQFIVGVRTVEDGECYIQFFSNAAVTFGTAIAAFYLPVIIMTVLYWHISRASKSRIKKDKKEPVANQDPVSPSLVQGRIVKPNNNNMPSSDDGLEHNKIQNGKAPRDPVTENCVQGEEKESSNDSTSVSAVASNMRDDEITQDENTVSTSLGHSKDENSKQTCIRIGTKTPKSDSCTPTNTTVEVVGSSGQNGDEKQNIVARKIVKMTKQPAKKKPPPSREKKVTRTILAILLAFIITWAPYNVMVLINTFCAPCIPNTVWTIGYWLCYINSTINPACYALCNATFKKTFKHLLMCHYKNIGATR

[4] = molecular target: T3, Receptor-type tyrosine-protein phosphatase C (Homo sapiens, UniProt P08575); design: species or system Escherichia coli;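 note: inhibition of CD45 enzyme activity measured using DiFMUP as substrate; in other assays of this panel Not Active means under 50% inhibition at 10 µM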
T3 sequence (P08575 whole entry): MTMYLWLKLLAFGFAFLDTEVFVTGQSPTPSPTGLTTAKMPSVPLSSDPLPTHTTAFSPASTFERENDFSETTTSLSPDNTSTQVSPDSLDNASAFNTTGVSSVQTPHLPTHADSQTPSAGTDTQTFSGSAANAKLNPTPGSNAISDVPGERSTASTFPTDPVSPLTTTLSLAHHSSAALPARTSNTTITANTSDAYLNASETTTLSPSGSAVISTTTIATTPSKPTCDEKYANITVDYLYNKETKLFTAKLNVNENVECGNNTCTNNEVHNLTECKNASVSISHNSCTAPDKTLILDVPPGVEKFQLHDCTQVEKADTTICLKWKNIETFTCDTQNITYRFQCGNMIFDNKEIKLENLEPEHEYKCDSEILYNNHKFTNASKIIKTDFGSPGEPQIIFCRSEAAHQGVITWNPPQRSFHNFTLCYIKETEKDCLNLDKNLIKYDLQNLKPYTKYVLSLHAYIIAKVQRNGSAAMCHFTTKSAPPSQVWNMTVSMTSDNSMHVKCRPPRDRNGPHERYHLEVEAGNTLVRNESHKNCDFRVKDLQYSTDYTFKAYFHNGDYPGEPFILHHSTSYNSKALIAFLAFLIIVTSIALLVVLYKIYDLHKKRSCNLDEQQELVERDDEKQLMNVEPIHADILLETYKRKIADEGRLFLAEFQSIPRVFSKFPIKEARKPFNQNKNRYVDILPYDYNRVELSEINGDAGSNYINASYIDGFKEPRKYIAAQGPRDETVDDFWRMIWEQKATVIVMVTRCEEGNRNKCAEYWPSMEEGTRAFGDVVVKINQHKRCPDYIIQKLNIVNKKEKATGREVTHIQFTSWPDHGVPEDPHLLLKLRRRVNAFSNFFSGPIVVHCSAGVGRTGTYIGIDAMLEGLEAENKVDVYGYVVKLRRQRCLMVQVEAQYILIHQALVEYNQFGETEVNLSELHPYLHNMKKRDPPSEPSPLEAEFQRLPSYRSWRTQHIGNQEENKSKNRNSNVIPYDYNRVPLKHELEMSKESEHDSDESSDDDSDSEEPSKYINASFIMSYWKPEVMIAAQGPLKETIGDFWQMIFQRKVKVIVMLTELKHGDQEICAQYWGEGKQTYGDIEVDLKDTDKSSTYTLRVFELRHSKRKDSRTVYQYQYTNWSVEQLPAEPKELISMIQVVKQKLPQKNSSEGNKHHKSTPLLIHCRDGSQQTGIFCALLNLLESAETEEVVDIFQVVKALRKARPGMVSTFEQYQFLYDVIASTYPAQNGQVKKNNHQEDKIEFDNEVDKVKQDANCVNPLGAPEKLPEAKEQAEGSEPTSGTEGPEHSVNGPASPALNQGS

Estrogen receptor = molecular target: T4, Estrogen receptor (Homo sapiens, UniProt P03372); conditions: sf9; note: in other assays of this panel Not Active means under 50% inhibition at 10 µM
T4 sequence (P03372 whole entry): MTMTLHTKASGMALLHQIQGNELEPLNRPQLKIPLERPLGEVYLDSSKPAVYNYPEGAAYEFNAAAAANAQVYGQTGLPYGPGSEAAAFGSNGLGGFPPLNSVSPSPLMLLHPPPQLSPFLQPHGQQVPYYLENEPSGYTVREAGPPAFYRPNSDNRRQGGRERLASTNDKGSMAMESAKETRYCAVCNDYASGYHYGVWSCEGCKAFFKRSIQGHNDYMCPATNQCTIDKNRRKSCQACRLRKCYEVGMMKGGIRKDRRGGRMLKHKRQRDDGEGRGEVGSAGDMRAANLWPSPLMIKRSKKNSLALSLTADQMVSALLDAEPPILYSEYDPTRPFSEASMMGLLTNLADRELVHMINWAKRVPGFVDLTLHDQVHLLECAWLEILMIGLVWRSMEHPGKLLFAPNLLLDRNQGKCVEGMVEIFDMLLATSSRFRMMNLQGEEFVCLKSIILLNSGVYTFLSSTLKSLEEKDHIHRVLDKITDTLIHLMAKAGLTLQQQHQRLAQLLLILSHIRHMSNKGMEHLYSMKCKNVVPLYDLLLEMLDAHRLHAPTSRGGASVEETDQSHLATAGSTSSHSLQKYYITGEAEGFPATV

Row | Compound | IC50 [1] | Ki [1] | IC50 [2] | Ki [2] | IC50 (Substance-K receptor) | IC50 [3] | IC50 [4] | IC50 (Estrogen receptor) | pIC50 ([1]; read-out: IC50)
1 | O=C(c1ccccc1C(F)(F)F)N1CCC(Cc2ccccc2)CC1 | Not Active | Not Active | Not Active | Not Active | Not Active | Not Active | Not Active | Not Active | –
2 | O=C/C=C/c1ccccc1 | Not Active | Not Active | Not Active | Not Active | Not Active | Not Active | Not Active | Not Active | –
3 | Nc1ccc2c3c(cccc13)C(=O)NC2=O | Not Active | Not Active | Not Active | Not Active | Not Active | Not Active | Not Active | Not Active | –
4 | O=c1cnn([C@@H]2O[C@H](CO)[C@@H](O)[C@H]2O)c(=O)[nH]1 [6-AZAURIDINE] | Not Active | Not Active | Not Active | Not Active | Not Active | Not Active | Not Active | Not Active | –
5 | CC[C@H](C)[C@H]1O[C@]2(C=C[C@@H]1C)C[C@@H]1C[C@@H](C/C=C(\C)[C@@H](O[C@H]3C[C@H](OC)[C@@H](O[C@H]4C[C@H](OC)[C@@H](O)[C@H](C)O4)[C@H](C)O3)[C@@H](C)/C=C/C=C3\CO[C@@H]4[C@H](O)C(C)=C[C@@H](C(=O)O1)[C@]34O)O2.CO[C@H]1C[C@H](O[C@H]2[C@H](C)O[C@@H](O[C@@H]3/C(C)=C/C[C@@H]4C[C@@H](C[C@]5(C=C[C@H](C)[C@@H](C(C)C)O5)O4)OC(=O)[C@@H]4C=C(C)[C@@H](O)[C@H]5OC/C(=C\C=C\[C@@H]3C)[C@]54O)C[C@@H]2OC)O[C@@H](C)[C@@H]1O [ABAMECTIN] | Not Active | Not Active | Not Active | Not Active | Not Active | Not Active | Not Active | Not Active | –
6 | Cc1nnc2n1-c1ccc(Cl)cc1C(c1ccccc1)=NC2 [ALPRAZOLAM] | Not Active | Not Active | Not Active | Not Active | Not Active | Not Active | Not Active | Not Active | –
7 | COc1ccc(C2C(=O)c3ccccc3C2=O)cc1 [ANISINDIONE] | Not Active | Not Active | Not Active | Not Active | Not Active | Not Active | Not Active | Not Active | –
8 | CC(C(=O)O)c1ccc2oc(-c3ccc(Cl)cc3)nc2c1 (stereo not drawn) [BENOXAPROFEN] | Not Active | Not Active | Not Active | Not Active | Not Active | Not Active | Not Active | Not Active | –
9 | COc1ccc2cc3[n+](cc2c1OC)CCc1cc2c(cc1-3)OCO2.[Cl-] [BERBERINE CHLORIDE] | Not Active | Not Active | Not Active | Not Active | Not Active | Not Active | Not Active | Not Active | –
10 | O=C(O)CCNC(=O)c1ccccc1 [BETAMIPRON] | Not Active | Not Active | Not Active | Not Active | Not Active | Not Active | Not Active | Not Active | –
11 | CC(=O)Oc1ccc(C(c2ccc(OC(C)=O)cc2)c2ccccn2)cc1 [BISACODYL] | Not Active | Not Active | Not Active | Not Active | Not Active | Not Active | Not Active | Not Active | –
12 | O=C(N/N=C/c1ccc([N+](=O)[O-])o1)c1cc([N+](=O)[O-])cc([N+](=O)[O-])c1O [NIFURSOL] | Not Active | Not Active | Not Active | Not Active | Not Active | Not Active | Not Active | – | –
13 | COC(=O)Nc1nc2ccc(C(=O)c3cccs3)cc2[nH]1 [NOCODAZOLE] | Not Active | Not Active | Not Active | Not Active | Not Active | Not Active | Not Active | – | –
14 | CC(C)NCC(O)COc1cccc2[nH]ccc12 (stereo not drawn) [PINDOLOL] | Not Active | Not Active | Not Active | Not Active | Not Active | Not Active | Not Active | – | –
15 | CCn1cc(C(=O)O)c(=O)c2cnc(N3CCCC3)nc21 [PIROMIDIC ACID] | Not Active | Not Active | Not Active | Not Active | Not Active | Not Active | Not Active | – | –
16 | CCCN(CCC)S(=O)(=O)c1ccc(C(=O)O)cc1 [PROBENECID] | Not Active | Not Active | Not Active | Not Active | Not Active | Not Active | Not Active | – | –
17 | CCCNCC(O)COc1ccccc1C(=O)CCc1ccccc1 (stereo not drawn) [PROPAFENONE] | Not Active | Not Active | Not Active | Not Active | Not Active | Not Active | Not Active | – | –
18 | CCCOc1ccc(C(=O)OCCN(CC)CC)cc1N [PROPARACAINE] | Not Active | Not Active | Not Active | Not Active | Not Active | Not Active | Not Active | – | –
19 | C[C@@H]1O[C@@H](O[C@@H]2C=C3CC[C@@H]4[C@H](CC[C@]5(C)[C@@H](c6ccc(=O)oc6)CC[C@]45O)[C@@]3(C)CC2)[C@H](O)[C@H](O)[C@H]1O [PROSCILLARIDIN] | – | – | Not Active | Not Active | Not Active | Not Active | Not Active | – | 7.06
